Legend:
Cor26 CRH mice = assay: REMS levels by EEG/EMG recording in Cor26 CRH mice and control littermates; details: for REMS activity / REMS levels: CRH-overexpressing Cor26 CRH mice, 50 mg/kg/d via drinking water
Description: (§1) Experiments were conducted with two different mouse lines of excessive central CRH secretion and their respective control littermates (CL). Mice of the CRH-COE^CNS line are characterised by CRH-overexpression within the whole CNS, whereas mice of the Cor26 CRH line display a CRH-overexpression specific to CRH-ergic neurons of the CNS. Three different CRHR1 antagonists were tested. […] In all cases, animals were left to recover from EEG/EMG-electrode implantation for two weeks, after which two days of baseline recording were initiated. Treatment with CRH-R1 antagonist or respective vehicle control commenced thereafter for five consecutive days. Antagonists were applied through the drinking water at a daily dose of 50 mg/kg body weight. EEG and EMG recordings were manually scored as wake, non-REMS (NREMS), and REMS in four second epochs by an experienced evaluator.

[1] = tested on: mice overexpressing CRH in the forebrain; details: cited from earlier work
CRH-COE^CNS mice = assay: REMS activity by EEG/EMG recording in CRH-COE^CNS mice and control littermates; details: for REMS activity: treatment days vs baseline
Description: as §1

Row | Compound | REMS activity / REMS levels (Cor26 CRH mice; 50 mg/kg/day) | REMS activity / REMS levels (Cor26 CRH mice; listed as CP-316311, 50 mg/kg/day) | REMS levels, area under the curve (AUC) within the light period (Cor26 CRH mice; Cor26 CRH mice, baseline vs treatment day three, P=0.006) | REM enhancement [1] | REMS activity in control littermates (CRH-COE^CNS mice; CL (control) mice, 50 mg/kg/d via drinking water) | treatment day of strongest suppression of REMS activity (CRH-COE^CNS mice; CRH-COE^CNS mice, 50 mg/kg/d) | REMS activity (CRH-COE^CNS mice; CRH-COE^CNS mice, 50 mg/kg/d via drinking water, 50 mg/kg/day) | REMS activity (CRH-COE^CNS mice; CRH-COE^CNS mice, 50 mg/kg/d via drinking water, listed as DMP696, 50 mg/kg/day)
1 | CCC(CC)Oc1cc(C)nc(Oc2c(C)cc(C)cc2C)c1C [CP-316,311] | apparently seemed weak | suppressed | significant decrease |  |  |  |  | 
2 | COCC(COC)Nc1nc(C)nc2c(-c3ccc(Cl)cc3Cl)c(C)nn12 [DMP-696] |  |  |  | could reverse the REM enhancement | only a mild suppression of REMS | treatment day three | significant decrease in REMS activity | suppressed
